Reference: PubChem BioAssay AID248 (DTP/NCI, 2004)
Several values for one entry are separate records, joined by “and”; a condition that tells them apart may be missing. Equal values may be shown once. Toxic doses and inconclusive results are not listed. No stated cut-off is given here; in the data, active means T/C of 150% or more; inactive means T/C below 125%.

Tested on: L1210 leukemia ip in BDF1 mice, survival T/C
Assay: NCI In Vivo Anticancer Drug Screen. Data for tumor model L1210 Leukemia (intraperitoneal) in B6D2F1 (BDF1) mice
Settings: higher = longer survival
Summary of the method: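 Transplanted-tumor mice were given test agent; controls received vehicle only. Survival readings from the two groups were divided (treated over control).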

[1] = endpoint: mean survival time, dose: 100.0 mg/kg/injection, schedule: Q01DX001 (ip), vehicle: Klucel (hydroxypropylcellulose) (HPC)

Measured: T/C

CCC1=C(C[C@H]2NCCc3cc(OC)c(OC)cc32)C[C@H]2c3cc(OC)c(OC)cc3CCN2C1
inactive: endpoint: mean survival time, dose: 1.0 mg/kg/injection, schedule: Q01DX005 (ip), vehicle: saline 111 % of control | endpoint: mean survival time, dose: 1.0 mg/kg/injection, schedule: Q03HX024 (ip), vehicle: saline 111 % of control | endpoint: mean survival time, dose: 2.0 mg/kg/injection, schedule: Q01DX005 (ip), vehicle: saline 107 % of control and 108 % of control | endpoint: mean survival time, dose: 2.0 mg/kg/injection, schedule: Q01DX009 (ip), vehicle: saline 103 % of control | endpoint: mean survival time, dose: 2.0 mg/kg/injection, schedule: Q03HX016 (ip), vehicle: saline 111 % of control | endpoint: mean survival time, dose: 2.0 mg/kg/injection, schedule: Q04DX003 (ip), vehicle: saline 103 % of control and 104 % of control | endpoint: mean survival time, dose: 2.32 mg/kg/injection, schedule: Q01DX005 (ip), vehicle: saline 117 % of control | endpoint: mean survival time, dose: 4.0 mg/kg/injection, schedule: Q01DX005 (ip), vehicle: saline 119 % of control [middle of 4 runs] | endpoint: mean survival time, dose: 4.0 mg/kg/injection, schedule: Q01DX005 (sc), vehicle: saline 122 % of control | endpoint: mean survival time, dose: 4.0 mg/kg/injection, schedule: Q01DX009 (ip), vehicle: saline 103 % of control and 119 % of control | endpoint: mean survival time, dose: 4.0 mg/kg/injection, schedule: Q04DX003 (ip), vehicle: saline 107 % of control and 105 % of control and 108 % of control | endpoint: mean survival time, dose: 4.64 mg/kg/injection, schedule: Q01DX005 (ip), vehicle: saline 116 % of control | endpoint: mean survival time, dose: 4.64 mg/kg/injection, schedule: Q04DX003 (ip), vehicle: saline 106 % of control | endpoint: mean survival time, dose: 8.0 mg/kg/injection, schedule: Q01DX005 (oral), vehicle: saline 102 % of control | endpoint: mean survival time, dose: 8.0 mg/kg/injection, schedule: Q01DX005 (sc), vehicle: saline 119 % of control | endpoint: mean survival time, dose: 8.0 mg/kg/injection, schedule: Q01DX009 (ip), vehicle: saline 108 % of control | endpoint: mean survival time, dose: 8.0 mg/kg/injection, schedule: Q04DX003 (ip), vehicle: saline 111 % of control [middle of 4 runs] | endpoint: mean survival time, dose: 9.28 mg/kg/injection, schedule: Q04DX003 (ip), vehicle: saline 94 % of control | endpoint: mean survival time, dose: 16.0 mg/kg/injection, schedule: Q01DX005 (oral), vehicle: saline 116 % of control | endpoint: mean survival time, dose: 16.0 mg/kg/injection, schedule: Q01DX005 (sc), vehicle: saline 105 % of control | endpoint: mean survival time, dose: 16.0 mg/kg/injection, schedule: Q08DX002 (ip), vehicle: saline 120 % of control | endpoint: mean survival time, dose: 32.0 mg/kg/injection, schedule: Q01DX001 (sc), vehicle: saline 110 % of control | endpoint: mean survival time, dose: 37.12 mg/kg/injection, schedule: Q04DX003 (ip), vehicle: saline 108 % of control | endpoint: mean survival time, dose: 64.0 mg/kg/injection, schedule: Q01DX001 (sc), vehicle: saline 121 % of control | endpoint: mean survival time, dose: 64.0 mg/kg/injection, schedule: Q04DX003 (ip), vehicle: saline 102 % of control | endpoint: median survival time, dose: 4.0 mg/kg/injection, schedule: Q04DX003 (ip), vehicle: saline 102 % of control | endpoint: median survival time, dose: 8.0 mg/kg/injection, schedule: Q04DX003 (ip), vehicle: saline 107 % of control | endpoint: median survival time, dose: 16.0 mg/kg/injection, schedule: Q04DX003 (ip), vehicle: saline 110 % of control

C/C(=N/Nc1ccc([N+](=O)[O-])cc1[N+](=O)[O-])c1ccccc1
inactive: endpoint: mean survival time, dose: 100.0 mg/kg/injection, schedule: Q04DX003 (ip), vehicle: saline with Tween-80 88 % of control | endpoint: mean survival time, dose: 200.0 mg/kg/injection, schedule: Q04DX003 (ip), vehicle: saline with Tween-80 93 % of control | endpoint: mean survival time, dose: 400.0 mg/kg/injection, schedule: Q04DX003 (ip), vehicle: saline with Tween-80 90 % of control

CN1C(=O)N(C)C(=O)C(O)(C2(O)C(=O)N(C)C(=O)N(C)C2=O)C1=O
inactive: endpoint: mean survival time, dose: 9.38 mg/kg/injection, schedule: Q01DX001 (ip), vehicle: other 94 % of control | endpoint: mean survival time, dose: 18.75 mg/kg/injection, schedule: Q01DX001 (ip), vehicle: other 94 % of control | endpoint: mean survival time, dose: 37.5 mg/kg/injection, schedule: Q01DX001 (ip), vehicle: other 101 % of control

O=c1[nH]cnc2c1ncn2-c1ccc(N(CCO)CCO)cc1
inactive: endpoint: mean survival time, dose: 50.0 mg/kg/injection, schedule: Q01DX001 (ip), vehicle: carboxymethylcellulose (CMC) 98 % of control | endpoint: mean survival time, dose: 100.0 mg/kg/injection, schedule: Q01DX001 (ip), vehicle: carboxymethylcellulose (CMC) 115 % of control | endpoint: mean survival time, dose: 200.0 mg/kg/injection, schedule: Q01DX001 (ip), vehicle: carboxymethylcellulose (CMC) 95 % of control | endpoint: mean survival time, dose: 400.0 mg/kg/injection, schedule: Q01DX001 (ip), vehicle: carboxymethylcellulose (CMC) 98 % of control

NC(N)=N/N=C(\C=N\N=C(N)N)c1ccc(CCc2ccc(C(/C=N/N=C(N)N)=N\N=C(N)N)cc2)cc1
inactive: endpoint: mean survival time, dose: 1.56 mg/kg/injection, schedule: Q04DX003 (ip), vehicle: saline 98 % of control | endpoint: mean survival time, dose: 3.12 mg/kg/injection, schedule: Q04DX003 (ip), vehicle: saline 103 % of control

O=C(Nc1cccc(F)c1)Nc1cc([N+](=O)[O-])ccc1Cl
inactive: endpoint: mean survival time, dose: 100.0 mg/kg/injection, schedule: Q01DX009 (ip), vehicle: Klucel (hydroxypropylcellulose) (HPC) 97 % of control | endpoint: mean survival time, dose: 200.0 mg/kg/injection, schedule: Q01DX009 (ip), vehicle: Klucel (hydroxypropylcellulose) (HPC) 94 % of control | endpoint: mean survival time, dose: 400.0 mg/kg/injection, schedule: Q01DX009 (ip), vehicle: Klucel (hydroxypropylcellulose) (HPC) 94 % of control and 97 % of control

CSc1nncc(-c2ccccc2)n1
inactive: endpoint: mean survival time, dose: 25.0 mg/kg/injection, schedule: Q04DX003 (ip), vehicle: Klucel (hydroxypropylcellulose) (HPC) 97 % of control | endpoint: mean survival time, dose: 50.0 mg/kg/injection, schedule: Q04DX003 (ip), vehicle: Klucel (hydroxypropylcellulose) (HPC) 96 % of control | [1] 100 % of control | endpoint: mean survival time, dose: 100.0 mg/kg/injection, schedule: Q04DX003 (ip), vehicle: Klucel (hydroxypropylcellulose) (HPC) 102 % of control

COC(=O)c1[nH]cnc1N1CC[N+](CCCl)=N1
inactive: endpoint: mean survival time, dose: 37.5 mg/kg/injection, schedule: Q01DX009 (ip), vehicle: saline 116 % of control | endpoint: mean survival time, dose: 37.5 mg/kg/injection, schedule: Q04DX003 (ip), vehicle: saline 100 % of control | endpoint: mean survival time, dose: 75.0 mg/kg/injection, schedule: Q01DX001 (ip), vehicle: saline 98 % of control | endpoint: mean survival time, dose: 75.0 mg/kg/injection, schedule: Q01DX009 (ip), vehicle: saline 95 % of control | endpoint: mean survival time, dose: 75.0 mg/kg/injection, schedule: Q04DX003 (ip), vehicle: saline 107 % of control | endpoint: mean survival time, dose: 150.0 mg/kg/injection, schedule: Q01DX001 (ip), vehicle: saline 100 % of control | endpoint: mean survival time, dose: 150.0 mg/kg/injection, schedule: Q01DX009 (ip), vehicle: saline 103 % of control | endpoint: mean survival time, dose: 150.0 mg/kg/injection, schedule: Q04DX003 (ip), vehicle: saline 102 % of control

Cc1cc([N+](=O)[O-])c([N+](=O)[O-])cc1Cl
inactive: endpoint: mean survival time, dose: 50.0 mg/kg/injection, schedule: Q01DX009 (ip), vehicle: saline with Tween-80 115 % of control | [1] 105 % of control | endpoint: mean survival time, dose: 100.0 mg/kg/injection, schedule: Q01DX009 (ip), vehicle: saline with Tween-80 115 % of control | endpoint: mean survival time, dose: 200.0 mg/kg/injection, schedule: Q01DX001 (ip), vehicle: Klucel (hydroxypropylcellulose) (HPC) 115 % of control | endpoint: mean survival time, dose: 200.0 mg/kg/injection, schedule: Q01DX009 (ip), vehicle: saline with Tween-80 109 % of control

CCCCCCC(C)NCC(O)COc1cccc(C)c1 (centres undefined)
inactive: endpoint: mean survival time, dose: 12.5 mg/kg/injection, schedule: Q01DX009 (ip), vehicle: saline with Tween-80 94 % of control | endpoint: mean survival time, dose: 25.0 mg/kg/injection, schedule: Q01DX009 (ip), vehicle: saline with Tween-80 97 % of control

CN(C)CCSC(=O)N1c2ccccc2C(C)(C)c2ccccc21
inactive: endpoint: mean survival time, dose: 12.5 mg/kg/injection, schedule: Q01DX009 (ip), vehicle: saline 94 % of control | endpoint: mean survival time, dose: 25.0 mg/kg/injection, schedule: Q01DX009 (ip), vehicle: saline 100 % of control | endpoint: mean survival time, dose: 25.0 mg/kg/injection, schedule: Q04DX003 (ip), vehicle: saline 91 % of control | endpoint: mean survival time, dose: 50.0 mg/kg/injection, schedule: Q01DX009 (ip), vehicle: saline 111 % of control | endpoint: mean survival time, dose: 50.0 mg/kg/injection, schedule: Q04DX003 (ip), vehicle: saline 102 % of control | endpoint: mean survival time, dose: 100.0 mg/kg/injection, schedule: Q04DX003 (ip), vehicle: saline 96 % of control | endpoint: mean survival time, dose: 200.0 mg/kg/injection, schedule: Q04DX003 (ip), vehicle: saline 90 % of control
